Experimental findings from patent US20230277612A1, “SAPONIN DERIVATIVES FOR USE IN MEDICINE” (priority 2020, published 2023) are described below.

One series deals with HeLa cells. Briefly: Pilot cell-based bioassay: 10 μg/ml saponin with or without 1.5 pM dianthin-EGF, 72 h, relative cell viability. Further details: key to Cell killing activity (+ or −): Cell killing activity (+ or −); Cell killing activity (+ or −). Here is the method: HeLa cells were incubated for 72 h with the following constructs and cell viability before and after the 72 h-incubation was assessed. In the experiments, cells were exposed to 1.5 pM dianthin-EGF conjugate. A negative control were cells incubated with buffer vehicle and 10 microgram/ml saponin, without dianthin-EGF. Cell viability was set to 100% for the control in which both saponin and EGF-dianthin were omitted. […] Cell viability after 72 h was essentially 0%. For the chemically modified saponin variants, 10 microgram/ml saponin was tested in combination with 1.5 pM dianthin-EGF.

The next series concerns HeLa (EGFR+) cells. Nature of the series: Saponin titration in presence and absence of […] EGFdianthin, cell viability. Format: cell-based. The settings on record: in absence of EGFdianthin, read-out: General toxicity (IC50 / highest concentration). Here is the method: To extend this test, saponins from other sources were analyzed. A saponin purified from a root extract of Gypsophila elegans M.Bieb. […] FIG. 63C).

The test system of a further series is A431 (EGFR++) cells. Nature of the series: Saponin derivative titration in presence and absence of […] EGFdianthin, cell viability. To be noted: A431; without EGFdianthin; read-out: Toxicity as single compound. Format: cell-based.
For series [1], the system named is EGFR expressing cells (HeLa and A431). The settings on record: summary in description.
Series [2] in a line: Critical micellar concentration (CMC) by ANS fluorescence. Format: physicochemical. Here is the method: The critical micellar concentration (CMC) of saponins derived from Saponaria officinalis (SO) (Table A7) and derived from Quillaja saponaria (QS) (Table A8, and Table A9) was determined by the method of DeVendittis et al. (A fluorimetric method for the estimation of the critical micelle concentration of surfactants, Analytical Biochemistry, Volume 115, Issue 2, August 1981, Pages 278-286) as follows:
(§1) The emission spectrum of 8-Anilinonaphthalene-1-sulfonic acid (ANS) in either purified water (MQ) or PBS (Dulbecco's PBS+/+) was determined at dry weight concentrations of saponins ranging from 1 to 1400 pM to cover the range below and above the CMC. Above the CMC, the fluorescence yield of ANS increases and the wavelength of maximum emission decreases due to portioning of the fluorescent dye into micelles. Fluorescence yields were recorded on a Fluoroskan Ascent FL (Thermo Scientific) at an excitation wavelength of 355 nm, and an emission wavelength of 460 nm. 6 μg at a concentration of 75.86 pM of ANS were used per sample and measurement.
The critical micellar concentration (CMC) of saponins was determined by the method of DeVendittis et al. (A fluorimetric method for the estimation of the critical micelle concentration of surfactants, Analytical Biochemistry, Volume 115, Issue 2, August 1981, Pages 278-286) as follows:
as §1, with “μM” for “pM”

For the molecule `CC(=O)OC1C(C)OC(OC2C(C)OC(OC(=O)C34CCC(C)(C)CC3C3=CCC5C6(C)CCC(OC7OC(C(=O)O)C(O)C(OC8OCC(O)C(O)C8O)C7OC7OC(CO)C(O)C(O)C7O)C(C)(C=NNC(=O)CCOCCOCCOCCOCCN=[N+]=[N-])C6CCC5(C)C3(C)CC4O)C(OC3OC(C)C(OC4OCC(O)C(OC5OC(CO)C(O)C(O)C5O)C4O)C(O)C3O)C2O)C(O)C1OC1OCC(O)C(O)C1O` (stereo not shown), the “Cell killing activity (+ or −)” value was “+” with HeLa cells (10 μg/ml SO1861 or SO1861-derivative + […] EGFdianthin) and “−” in the series with HeLa cells (10 μg/ml SO1861 or SO1861-derivative alone). In addition, the IC50 in the series on HeLa (EGFR+) cells and with A431 (EGFR++) cells was more than 10 µM each time.

As for `CC(=O)OC1C(C)OC(OC2C(C)OC(OC(=O)[C@]34CCC(C)(C)CC3C3=CCC5[C@@]6(C)CC[C@H](OC7OC(C(=O)NC(C)(CO)CO)C(O)C(OC8OCC(O)C(O)C8O)C7OC7OC(CO)C(O)C(O)C7O)[C@@](C)(C=O)C6CC[C@@]5(C)[C@]3(C)C[C@H]4O)C(OC3OC(C)C(OC4OCC(O)C(OC5OC(CO)C(O)C(O)C5O)C4O)C(O)C3O)C2O)C(O)C1OC1OCC(O)C(O)C1O` (stereo partly shown) [Molecule 3A], the “Endosomal escape enhancing activity (enhancement of cytotoxicity of effector conjugate)” value (“Endosomal escape enhancing activity” for short) in series [1] was “display activity”.

`CC(=O)OC1C(C)OC(OC2C(C)OC(OC(=O)[C@]34CCC(C)(C)CC3C3=CCC5[C@@]6(C)CC[C@H](OC7OC(C(=O)O)C(O)C(OC8OCC(O)C(O)C8O)C7OC7OC(CO)C(O)C(O)C7O)[C@@](C)(CO)C6CC[C@@]5(C)[C@]3(C)C[C@H]4O)C(OC3OC(C)C(OC4OCC(O)C(OC5OC(CO)C(O)C(O)C5O)C4O)C(O)C3O)C2O)C(O)C1OC1OCC(O)C(O)C1O` (stereo partly shown) [Molecule 6]: the “CMC compared to corresponding underivatised saponin” value in series [2] is “increased CMC”. Besides, the “Endosomal escape enhancing activity” value in series [1] was “have the capacity to enhance the cytotoxic effect”.

Consider `CC1OC(OC2C(C)OC(OC(=O)[C@]34CCC(C)(C)CC3C3=CCC5[C@@]6(C)CC[C@H](OC7OC(C(=O)O)C(O)C(OC8OCC(O)C(O)C8O)C7OC7OC(CO)C(O)C(O)C7O)[C@@](C)(C=O)C6CC[C@@]5(C)[C@]3(C)C[C@H]4O)C(OC3OC(C)C(OC4OCC(O)C(OC5OC(CO)C(O)C(O)C5O)C4O)C(O)C3O)C2O)C(O)C(OC2OCC(O)C(O)C2O)C1O` (stereo partly shown) [Molecule 8], for which the “CMC compared to corresponding underivatised saponin” value in series [2] is given as “increased CMC”. Also, the “Endosomal escape enhancing activity” value in series [1] is listed as “display activity”.

Take `CC(=O)OC1C(C)OC(OC2C(C)OC(OC(=O)[C@]34CCC(C)(C)CC3C3=CCC5[C@@]6(C)CC[C@H](OC7OC(C(=O)NC(C)(CO)CO)C(O)C(OC8OCC(O)C(O)C8O)C7OC7OC(CO)C(O)C(O)C7O)[C@@](C)(CO)C6CC[C@@]5(C)[C@]3(C)C[C@H]4O)C(OC3OC(C)C(OC4OCC(O)C(OC5OC(CO)C(O)C(O)C5O)C4O)C(O)C3O)C2O)C(O)C1OC1OCC(O)C(O)C1O` (stereo partly shown) [Molecule 9]: the “Endosomal escape enhancing activity” value in series [1] was “have the capacity to enhance the cytotoxic effect”.

For the molecule `CC1OC(OC2C(C)OC(OC(=O)[C@]34CCC(C)(C)CC3C3=CCC5[C@@]6(C)CC[C@H](OC7OC(C(=O)O)C(O)C(OC8OCC(O)C(O)C8O)C7OC7OC(CO)C(O)C(O)C7O)[C@@](C)(CO)C6CC[C@@]5(C)[C@]3(C)C[C@H]4O)C(OC3OC(C)C(OC4OCC(O)C(OC5OC(CO)C(O)C(O)C5O)C4O)C(O)C3O)C2O)C(O)C(OC2OCC(O)C(O)C2O)C1O` (stereo partly shown) [Molecule 10], the “CMC compared to corresponding underivatised saponin” value in series [2] is reported as “increased CMC”. Besides, the “Endosomal escape enhancing activity” value in series [1] is “have the capacity to enhance the cytotoxic effect”.

On to `CC1OC(OC2C(C)OC(OC(=O)[C@]34CCC(C)(C)CC3C3=CCC5[C@@]6(C)CC[C@H](OC7OC(C(=O)NC(C)(CO)CO)C(O)C(OC8OCC(O)C(O)C8O)C7OC7OC(CO)C(O)C(O)C7O)[C@@](C)(C=O)C6CC[C@@]5(C)[C@]3(C)C[C@H]4O)C(OC3OC(C)C(OC4OCC(O)C(OC5OC(CO)C(O)C(O)C5O)C4O)C(O)C3O)C2O)C(O)C(OC2OCC(O)C(O)C2O)C1O` (stereo partly shown) [Molecule 11], for which the “Endosomal escape enhancing activity” value in series [1] is reported as “display activity”.

With `CC(=O)OC1C(C)OC(OC2C(C)OC(OC(=O)C34CCC(C)(C)CC3C3=CCC5C6(C)CCC(OC7OC(C(=O)NC(C)(CO)CO)C(O)C(OC8OCC(O)C(O)C8O)C7OC7OC(CO)C(O)C(O)C7O)C(C)(C=NNC(=O)CCCCCN7C(=O)C=CC7=O)C6CCC5(C)C3(C)CC4O)C(OC3OC(C)C(OC4OCC(O)C(OC5OC(CO)C(O)C(O)C5O)C4O)C(O)C3O)C2O)C(O)C1OC1OCC(O)C(O)C1O` (stereo not shown) [Molecule 14], in series [1], the “Endosomal escape enhancing activity” value is “have the capacity to enhance the cytotoxic effect”.

As for `CC1OC(OC2C(C)OC(OC(=O)C34CCC(C)(C)CC3C3=CCC5C6(C)CCC(OC7OC(C(=O)O)C(O)C(OC8OCC(O)C(O)C8O)C7OC7OC(CO)C(O)C(O)C7O)C(C)(C=NNC(=O)CCCCCN7C(=O)C=CC7=O)C6CCC5(C)C3(C)CC4O)C(OC3OC(C)C(OC4OCC(O)C(OC5OC(CO)C(O)C(O)C5O)C4O)C(O)C3O)C2O)C(O)C(OC2OCC(O)C(O)C2O)C1O` (stereo not shown) [Molecule 15], the “CMC compared to corresponding underivatised saponin” value in series [2] is reported as “increased CMC”. Further, the “Endosomal escape enhancing activity” value in series [1] is listed as “have the capacity to enhance the cytotoxic effect”.

For the molecule `CC(=O)OC1C(C)OC(OC2C(C)OC(OC(=O)[C@]34CCC(C)(C)CC3C3=CCC5[C@@]6(C)CC[C@H](OC7OC(C(=O)NCCN8C(=O)C=CC8=O)C(O)C(OC8OCC(O)C(O)C8O)C7OC7OC(CO)C(O)C(O)C7O)[C@@](C)(C=O)C6CC[C@@]5(C)[C@]3(C)C[C@H]4O)C(OC3OC(C)C(OC4OCC(O)C(OC5OC(CO)C(O)C(O)C5O)C4O)C(O)C3O)C2O)C(O)C1OC1OCC(O)C(O)C1O` (stereo partly shown) [Molecule 18], the “Endosomal escape enhancing activity” value in series [1] is “display activity”.

On to `CC1OC(OC2C(C)OC(OC(=O)[C@]34CCC(C)(C)CC3C3=CCC5[C@@]6(C)CC[C@H](OC7OC(C(=O)NCCN8C(=O)C=CC8=O)C(O)C(OC8OCC(O)C(O)C8O)C7OC7OC(CO)C(O)C(O)C7O)[C@@](C)(C=O)C6CC[C@@]5(C)[C@]3(C)C[C@H]4O)C(OC3OC(C)C(OC4OCC(O)C(OC5OC(CO)C(O)C(O)C5O)C4O)C(O)C3O)C2O)C(O)C(OC2OCC(O)C(O)C2O)C1O` (stereo partly shown) [Molecule 19], for which the “Endosomal escape enhancing activity” value in series [1] is recorded as “display activity”.

For `CC(=O)OC1C(C)OC(OC2C(C)OC(OC(=O)[C@]34CCC(C)(C)CC3C3=CCC5[C@@]6(C)CC[C@H](OC7OC(C(=O)NCCN8C(=O)C=CC8=O)C(O)C(OC8OCC(O)C(O)C8O)C7OC7OC(CO)C(O)C(O)C7O)[C@@](C)(CO)C6CC[C@@]5(C)[C@]3(C)C[C@H]4O)C(OC3OC(C)C(OC4OCC(O)C(OC5OC(CO)C(O)C(O)C5O)C4O)C(O)C3O)C2O)C(O)C1OC1OCC(O)C(O)C1O` (stereo partly shown) [Molecule 20], in series [1], the “Endosomal escape enhancing activity” value is “have the capacity to enhance the cytotoxic effect”.
